For 33 compounds, IC50 results are on record in US20210261539A1, “COMPOUND HAVING BET INHIBITORY ACTIVITY AND PREPARATION METHOD AND USE THEREFOR” (Shanghai Haihe Pharmaceutical Co., Ltd., priority 2018, published 2021).

pIC50: −log10 of the molar value.

In the assay the target is T1, BRD4 BD1 (Homo sapiens, UniProt O60885).
T1 construct: Protein BRD4 BD1 used in the assay was purchased from Active Motif (cat. 31380); purchased Active Motif 31380
Briefly: HTRF in vitro enzyme activity assay, inhibition of BRD4 BD1 binding to acetylated H4 peptide. The conditions noted are these: IC50 values of the compounds against BRD4 BD1 binding; class symbols A/B/C. Summed up: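 Recombinant human BRD4 BD1 (30 nM final) incubated with compound and biotinylated tetra-acetylated H4(1-21) peptide, 30 min at 37 °C; 5-point 1:5 dilution series, 0.1% DMSO final. HTRF read after 3 h at RT with SA-XL665 and Eu(K)-labelled antibody; IC50 derived.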
As for `Cc1ccc(C2c3ccccc3C(=O)N2c2nc3c(cc2F)N(C)C(=O)[C@@H](C)O3)cn1` (stereo partly drawn) [Example A114-P3, (R)-7-fluoro-1,3-dimethyl-6-(1-(6-methylpyridin-3-yl)-3-oxoisoindolin-2-yl)-1H-pyrido[2,3-b][1,4]oxazin-2(3H)-one], the negative-log IC50 (pIC50) was 6.00 to 7.00.

Compound `CNC(=O)c1cccc2c1C(=O)N(c1ccc3c(n1)N(C1CC1)C(C)C(=O)N3C)C2c1cccnc1` (single isomer, unassigned) [Example A83-P3] showed a pIC50 of no less than 8.00. For the compound `CC1Oc2cc(N3C(=O)c4ccccc4C3c3cccnc3)cc(F)c2N(C)C1=O` (single isomer, unassigned) [Example A107-P3, 1-methyl-3-methyl-6-(1-oxo-3-(pyridin-3-yl)isoindolin-2-yl)-8-fluoro-1H-benzo[2,3-B][1,4]oxazin-2(3H)-one], the pIC50 was 7.00 to 8.00. In turn, `C[C@H]1Oc2nc(N3C(=O)c4ccccc4C3c3ccc(F)nc3)ccc2N(C)C1=O` (single isomer, unassigned) [Example A111-P1] gave a pIC50 of no less than 8.00. Compound `CC1C(=O)N(C)c2cnc(N3C(=O)c4ccccc4C3c3ccc(C(F)(F)F)cc3)nc2N1C1CC1` (single isomer, unassigned) [Example A93-P4, 8-cyclopropyl-5,7-dimethyl-2-(1-oxo-3-(4-(trifluoromethyl)phenyl)isoindolin-2-yl)-7,8-dihydropteridin-6(5H)-one] had a pIC50 of no less than 8.00. Compound `CC1C(=O)N(C)c2ccc(-n3c(=O)c4ccccc4n3-c3ccc(C#N)cc3)nc2N1C1CC1` (stereo not drawn) [Example A27-P1, 6-(1-(4-cyanophenyl)-3-oxo-1,3-dihydro-2H-indazol-2-yl)-4-cyclopropyl-1,3-dimethyl-3,4-dihydropyrido [2,3-b]pyrazin-2(1H)-one] showed a pIC50 of no less than 8.00.

`C[C@H]1Oc2nc(N3C(=O)c4ccccc4C3c3ccc(F)nc3)c(F)cc2N(C)C1=O` (single isomer, unassigned) [Example A126-P1]: the pIC50 was 7.00 to 8.00.

`CC1Oc2nc(N3C(=O)c4ccccc4C3c3ccc(F)cc3)ccc2N(CC(F)(F)F)C1=O` (single isomer, unassigned) [Example A120-P1, 6-(1-(4-fluorophenyl)-3-oxoisoindol-2-yl)-3-methyl-1-(2,2,2-trifluoroethyl)-1H-pyrido[2,3-B][1,4]oxazin-2(3H)-one] gave a pIC50 of 6.00 to 7.00. In the case of `CC(C)N1c2nc(N3C(=O)c4ccccc4C3c3cccnc3)ccc2N(C)C(=O)C1C` (stereo not drawn) [Example A57-P3], the negative-log IC50 (pIC50) was no less than 8.00.

Turning to `COC(=O)c1cccc2c1C(=O)N(c1ccc3c(n1)N(C1CC1)C(C)C(=O)N3C)C2c1ccc(F)cc1` (single isomer, unassigned) [Example A80-P3, Methyl 2-(4-cyclopropyl-1,3-dimethyl-2-oxo-1,2,3,4-tetrahydropyrido[2,3-b]pyrazin-6-yl)-1-(4-fluorophenyl)-3-oxoisoindoline-4-carboxylate], the pIC50 was no less than 8.00.

For the compound `CC1C(=O)N(C)c2ccc(N3C(=O)c4c(C(=O)N5CCN(C)CC5)cccc4C3c3ccc(F)cc3)nc2N1C1CC1` (single isomer, unassigned) [Example A82-P4], the negative-log IC50 (pIC50) is no less than 8.00. The result for `CC1C(=O)N(C)c2ccc(N3C(=O)CCC3c3ccc(Cl)cc3)nc2N1C1CC1` (stereo not drawn) [Example A3-P3, 4-cyclopropyl-6-(2-(4-chlorophenyl)-5-oxopyrrolidin-1-yl)-1,3-dimethyl-3,4-dihydropyrido[2,3-b]pyrazin-2(1H)-one] reads no less than 8.00; that for `CC1C(=O)N(C)c2ccc(N3C(=O)c4ccccc4C3c3ccccc3)nc2N1CC(F)(F)F` (stereo not drawn) [Example A56-P1, 1,3-dimethyl-6-(1-oxo-3-phenylisoindolin-2-yl)-4-(2,2,2-trifluoroethyl)-3,4-dihydropyrido [2,3-b]pyrazin-2(1H)-one], no less than 8.00. `[2H]C([2H])([2H])N1C(=O)C(C)N(C2CC2)c2nc(N3C(=O)c4ccccc4C3c3ccc(F)cc3)ccc21` (stereo not drawn) [Example A51-P3, 4-cyclopropyl-6-(1-(4-fluorophenyl)-3-oxoisoindolin-2-yl)-3-methyl-1-(trideuteromethyl)-3,4-dihydropyrido [2,3-B]pyrazin2(1 H)-one] had a negative logarithm of the IC50 (pIC50) of no less than 8.00. As to `C[C@H]1Oc2cc(N3C(=O)c4ccccc4C3c3cccnc3)ncc2N(C)C1=O` (single isomer, unassigned) [Example A123-P2], the pIC50 was 6.00 to 7.00. Compound `Cc1ccc(C2c3ccccc3C(=O)N2c2cc3c(cn2)N(C)C(=O)[C@@H](C)O3)cn1` (single isomer, unassigned) [Example A113-P1] had a negative-log IC50 (pIC50) of 6.00 to 7.00. In the case of `CC1Oc2nc(-n3c(=O)c4ccccc4n3-c3ccc(Cl)cc3)ccc2N(C)C1=O` (stereo not drawn) [Example A32-P3, 6-(1-(4-chlorophenyl)-3-oxo-1,3-dihydro-2H-indazol-2-yl)-1,3-dimethyl-1H-pyrido[2,3-B][1,4]oxazin-2(3H)-one], the pIC50 is 7.00 to 8.00.

For `CC1C(=O)N(C)c2ccc(-n3c(=O)c4ccccc4n3-c3ccc(Cl)cc3)nc2N1C1CC1` (single isomer, unassigned) [Example A12-P1, 6-(1-(4-chlorophenyl)-3-oxo-1,3-dihydro-2H-indazol-2-yl)-4-cyclopropyl-1,3-dimethyl-3,4-dihydropyrido[2,3-b]pyrazin-2(1H)-one], the pIC50 is no less than 8.00. For the compound `C[C@@H]1C(=O)N(C)c2ccc(N3C(=O)c4c(C(=O)NC5CC5)cccc4C3c3ccc(F)cc3)nc2N1C` (stereo partly drawn) [Example A86-P3, N-cyclopropyl-1-(4-fluorophenyl)-3-oxo-2-((R)-1,3,4-trimethyl-2-oxo-1,2,3,4-tetrahydropyrido[2,3-b]pyrazin-6-yl)isoindoline-4-carboxamide], the pIC50 is no less than 8.00. In the case of `COC(=O)c1cccc2c1C(=O)N(c1ccc3c(n1)N(C1CC1)C(C)C(=O)N3C)C2c1cccnc1` (single isomer, unassigned) [Example A84-P4, Methyl 2-(4-cyclopropyl-1,3-dimethyl-2-oxo-1,2,3,4-tetrahydropyrido[2,3-b]pyrazin-6-yl)-3-oxo-1-(pyridin-3-yl)isoindoline-4-carboxylate], the pIC50 was no less than 8.00.

Turning to `CC1C(=O)N(C)c2ccc(N3C(=O)c4ccccc4C3(O)c3ccc(F)cc3)nc2N1C1CC1` (stereo not drawn) [Compound A25, 4-cyclopropyl-6-(1-(4-fluorophenyl)-1-hydroxy-3-oxoisoindolin-2-yl)-1,3-dimethyl-3,4-dihydropyrido[2,3-b]pyrazin-2(1H)-one], the negative logarithm of the IC50 (pIC50) is 7.00 to 8.00. In turn, `CC1C(=O)N(C)c2ccc(N3C(=O)c4c(C(=O)O)cccc4C3c3ccc(F)cc3)nc2N1C1CC1` (single isomer, unassigned) [Example A81-P4] had a negative logarithm of the IC50 (pIC50) of no less than 8.00.

The compound `CC[S+]([O-])c1cccc2c1C(=O)N(c1ccc3c(n1)N(C1CC1)C(C)C(=O)N3C)C2c1cccnc1` (stereo not drawn) [Example A73, 4-cyclopropyl-6-(4-(ethylsulfinyl)-3-oxo-1-(pyridin-3-yl)isoindolin-2-yl)-1,3-dimethyl-3,4-dihydropyrido[2,3-b]pyrazin-2(1H)-one] had a negative-log IC50 (pIC50) of no less than 8.00.

With `CC1C(=O)N(C)c2ccc(N3C(=O)c4ccccc4C3(O)c3ccc(Cl)cc3)nc2N1C1CC1` (racemic) [Example A30, 6-(1-(4-chlorophenyl)-1-hydroxy-3-oxoisoindolin-2-yl)-4-cyclopropyl-1,3-dimethyl-3,4-dihydropyrido [3,2-b]pyrazin-2(H)-one], the pIC50 is 7.00 to 8.00. With `CCN1C(=O)[C@@H](C)Oc2nc(N3C(=O)c4ccccc4C3c3cccnc3)ccc21` (stereo partly drawn) [Example A108-P3, (R)-1-ethyl-3-methyl-6-(1-oxo-3-(pyridin-3-yl)isoindolin-2-yl)-1H-pyrido[2,3-B][1,4]oxazin-2(3H)-one], the pIC50 was 7.00 to 8.00. In the case of `C[C@@H]1C(=O)N(C)c2ccc(N3C(=O)c4c(cccc4S(C)(=O)=O)C3c3cccnc3)nc2N1C` (single isomer, unassigned) [Example A62-P1], the pIC50 is no less than 8.00. For `CC1C(=O)N(C)c2ccc(N3C(=O)c4c(cccc4[S+](C)[O-])C3c3cccnc3)nc2N1C1CC1` (single isomer, unassigned) [Example A60-P2] the value was no less than 8.00; for `CC1C(=O)N(C)c2ccc(N3C(=O)c4ccccc4C3c3cccnc3)nc2N1C1(C)CC1` (stereo not drawn) [Example A47-P4, 1,3-dimethyl-4-(1-methylcyclopropyl)-6-(1-oxo-3-(pyridin-3-yl)isoindolin-2-yl)-3,4-dihydropyrido [2,3-b]pyrazin-2(1H)-one], no less than 8.00; for `CC1Oc2nc(N3C(=O)c4ccccc4C3c3ccc(F)cc3)ccc2N(C)C1=O` (stereo not drawn) [Example A39-P1, 6-(1-(4-fluorophenyl)-3-oxoisoindolin-2-yl)-1,3-dimethyl-1H-pyrido[2,3-b][1,4]oxazin-2(3H)-one], no less than 8.00.

On to `C[C@@H]1C(=O)N(C)c2ccc(N3C(=O)c4ccccc4C3c3ccccn3)nc2N1C` (stereo partly drawn) [Example A42-P2, (3R)-1,3,4-trimethyl-6-(1-oxo-3-(pyridin-2-yl)isoindolin-2-yl)-3,4-dihydropyrido [2,3-b]pyrazin-2-(1H)-one], for which the negative logarithm of the IC50 (pIC50) was no less than 8.00. `C[C@H]1Oc2nc(N3C(=O)c4c(cccc4S(C)(=O)=O)C3c3cccnc3)ccc2N(C)C1=O` (single isomer, unassigned) [Example A128-P1] gave a pIC50 of 7.00 to 8.00. For `CCSc1cccc2c1C(=O)N(c1ccc3c(n1)N(C1CC1)C(C)C(=O)N3C)C2c1cccnc1` (single isomer, unassigned) [Example A66-P3] the value was no less than 8.00; for `Cc1ccc(-n2c3ccccc3c(=O)n2-c2ccc3c(n2)N(C2CC2)C(C)C(=O)N3C)cn1` (single isomer, unassigned) [Example A50-P3, 6-(1-(6-methyl-pyridin-3-yl)-3-oxo-1,3-dihydro-2H-indazol-2-yl)-4-cyclopropyl-1-methyl-3-methyl-3,4-dihydropyridine [2,3-b]pyrazin-2(1H)-one], no less than 8.00.
